Assay results from ChEMBL document CHEMBL3243946, “A comparison of the antiserotonin, antihistamine, and anticholinergic activity of cyproheptadine with analogues having furan nuclei fused to the 10,11-vinylene bridge” (1977).
Calls of active or inactive are those of the source. The calls are words filed in the database; no cut-off is given here.

Columns and labels:
Rattus norvegicus [1] = experiment: Antiserotonin activity in Sprague-Dawley rat assessed as inhibition of feet weight gain at 10 mg/kg, sc after 30 mins; format: functional, organism-based; set-up: dose 10 mg/kg
Mus musculus [2] = experiment: Anticholinergic activity in Carworth CF1 mouse assessed as dose required to produce pupil dilation to 1.5 micrometer units in 50% mouse at 324 mg/kg, ip; format: functional, organism-based; set-up: dose 324 mg/kg
Cavia porcellus [3] = experiment: Antihistamine activity in Duncan-Hartley guinea pig assessed as protection of animal from death caused by histamine aerosol-induced bronchoconstriction at 12.5 mg/kg, ip; format: functional, organism-based; set-up: dose 12.5 mg/kg
Mus musculus [4] = experiment: Anticholinergic activity in ip dosed Carworth CF1 mouse assessed as dose required to produce pupil dilation to 1.5 micrometer units in 50% mouse; format: functional
Cavia porcellus [5] = species: Cavia porcellus; experiment: animal or person; format: functional; conditions: Duncan-Hartley, ip
Description: Antihistamine activity in ip dosed Duncan-Hartley guinea pig assessed as protection of animal from death caused by histamine aerosol-induced bronchoconstriction

Rattus norvegicus [6] = experiment: Antiserotonin activity in sc dosed Sprague-Dawley rat assessed as inhibition of feet weight gain after 30 mins; conditions: 0.5 h
Mus musculus [7] = experiment: Anticholinergic activity in ip dosed Carworth CF1 mouse assessed as pupil dilation to 15 micrometer units in 100% mouse; format: functional

With `CN1CCC(=C2c3ccccc3C3COCC3c3ccccc32)CC1` (stereo not drawn) the inhibition (Rattus norvegicus [1]) was “inactive”, the inhibition (Mus musculus [2]) was “inactive” and the inhibition (Cavia porcellus [3]) was “inactive”.
With `CN1CCC(=C2c3ccccc3C(CO)=C(CO)c3ccccc32)CC1` the inhibition (Rattus norvegicus [1]) was “inactive”, the ED (Mus musculus [4]) was 4 mg/kg and the ED50 (Cavia porcellus [5]) was 12.5 mg/kg.
In the case of `CN1CCC(=C2c3ccccc3C3=C(c4ccccc42)C2CCC3O2)CC1`, the inhibition (Rattus norvegicus [1]) is reported as “inactive”, the inhibition (Mus musculus [2]) is reported as “inactive” and the inhibition (Cavia porcellus [3]) is reported as “inactive”.
`CN1CCC(=C2c3ccccc3C3=C(c4ccccc42)C2(C)C=CC3O2)CC1` (stereo not drawn) was tested, and the inhibition (Rattus norvegicus [1]) was “inactive”, the inhibition (Mus musculus [2]) was “inactive” and the inhibition (Cavia porcellus [3]) was “inactive”.
For `CN1CCC(=C2c3ccccc3C3=C(c4ccccc42)C2C=CC3O2)CC1`, the inhibition (Rattus norvegicus [1]) was “inactive”, the inhibition (Mus musculus [2]) was “inactive” and the inhibition (Cavia porcellus [3]) was “inactive”.
`CN1CCC(=C2c3ccccc3C=Cc3ccccc32)CC1.Cl` [CYPROHEPTADINE HYDROCHLORIDE] gave an ED50 (Rattus norvegicus [6]) of 0.02 mg/kg, an ED (Mus musculus [4]) of 4 mg/kg and an ED50 (Cavia porcellus [5]) of 0.05 mg/kg.
With `CN1CCC(=C2c3ccccc3-c3cocc3-c3ccccc32)CC1` the inhibition (Rattus norvegicus [1]) was “inactive”, the ED (Mus musculus [4]) was 36 mg/kg and the inhibition (Cavia porcellus [3]) was “inactive”.
`Cc1occ2c1-c1ccccc1C(=C1CCN(C)CC1)c1ccccc1-2` was tested, and the inhibition (Rattus norvegicus [1]) was “inactive”, the ED (Mus musculus [4]) was 4 mg/kg and the inhibition (Cavia porcellus [3]) was “inactive”.
For `CN1CCC(=C2c3ccccc3C3=C(C(=O)OC3)c3ccccc32)CC1.O=C(O)C(=O)O`, the inhibition (Rattus norvegicus [1]) was “inactive”, the ED (Mus musculus [7]) was <4 mg/kg and the ED50 (Cavia porcellus [5]) was 9.7 mg/kg.
For `C1=CC2OC1C1=C2c2ccccc2C(=C2CCNCC2)c2ccccc21`, the inhibition (Rattus norvegicus [1]) was “inactive”, the inhibition (Mus musculus [2]) was “inactive” and the inhibition (Cavia porcellus [3]) was “inactive”.
In the case of `c1ccc2c(c1)C(=C1CCNCC1)c1ccccc1-c1cocc1-2`, the inhibition (Rattus norvegicus [1]) is reported as “inactive”, the inhibition (Mus musculus [2]) is reported as “inactive” and the inhibition (Cavia porcellus [3]) is reported as “inactive”.
